One block for each compound: values may come before it. Calls of active or inactive are those of the source. The calls are words filed in the database; no cut-off is given here.
Experiments:
CAPAN-1 = test: Antitumor activity against human Capan1 cells xenografted in athymic nu/nu mouse assessed as tumor growth inhibition at 50 mg/kg administered for 5 days; assay type: functional, organism-based
[1] = Inhibition of human SULU1

SMILES: Cn1nnc2c(C(N)=O)ncn2c1=O
TGI (CAPAN-1): inactive

SMILES: NC(=O)c1cccc2c1C(=O)N(C1CCN(C3CCC(F)(F)CC3)CC1)C2
IC50 (MCF7): > 10 µM

IC50 [1]: > 10 µM
SMILES: NC(=O)c1cc(F)cc2c1C(=O)N(C1CCN(C3CCC(F)(F)CC3)CC1)C2

— ChEMBL document CHEMBL3603755 (J Med Chem, 2015)
